Source: article PMC8550792, “Evolution of kinase polypharmacology across HSP90 drug discovery” (Cell Chemical Biology, 2021)

How the values were obtained:
Experiment in all cases: biochemical
Type in all cases: biochemical
382 unique human kinases [1] = target: T1, 382 unique human kinases (Homo sapiens, UniProt O15111); settings: IKKa/CHUK, 10 uM; for remaining activity at 10 µM: read-out: % Enzyme Activity (relative to DMSO controls)
T1 construct: purchased Reaction Biology (HotSpot contract assay)
T1 sequence (O15111 1-745): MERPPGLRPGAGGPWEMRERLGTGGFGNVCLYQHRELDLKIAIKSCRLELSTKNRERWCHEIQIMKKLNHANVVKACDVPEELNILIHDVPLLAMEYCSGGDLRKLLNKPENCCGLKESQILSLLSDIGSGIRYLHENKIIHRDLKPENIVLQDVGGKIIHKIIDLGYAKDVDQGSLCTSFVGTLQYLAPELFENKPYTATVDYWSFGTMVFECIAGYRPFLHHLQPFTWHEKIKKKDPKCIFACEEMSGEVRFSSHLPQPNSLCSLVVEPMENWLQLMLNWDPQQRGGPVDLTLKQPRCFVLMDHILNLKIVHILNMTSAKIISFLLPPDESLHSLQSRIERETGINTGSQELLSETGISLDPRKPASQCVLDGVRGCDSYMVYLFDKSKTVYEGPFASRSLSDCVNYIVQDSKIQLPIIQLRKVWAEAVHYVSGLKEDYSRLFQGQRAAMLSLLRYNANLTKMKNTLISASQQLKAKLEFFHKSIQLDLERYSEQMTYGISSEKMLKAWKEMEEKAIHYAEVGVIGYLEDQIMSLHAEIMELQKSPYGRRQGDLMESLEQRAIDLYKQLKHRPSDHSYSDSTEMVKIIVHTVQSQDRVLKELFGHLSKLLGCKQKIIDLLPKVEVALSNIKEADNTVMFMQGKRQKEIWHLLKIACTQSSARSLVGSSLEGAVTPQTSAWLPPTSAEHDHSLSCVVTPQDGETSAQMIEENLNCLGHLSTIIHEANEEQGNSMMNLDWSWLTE

382 unique human kinases [2] = target: T2, 382 unique human kinases (Homo sapiens, UniProt P07949, M918T); settings: RET (M918T), 10 uM; for remaining activity at 10 µM: read-out: % Enzyme Activity (relative to DMSO controls)
T2 construct: purchased Reaction Biology (HotSpot contract assay)
T2 sequence (P07949 29-1114 M918T): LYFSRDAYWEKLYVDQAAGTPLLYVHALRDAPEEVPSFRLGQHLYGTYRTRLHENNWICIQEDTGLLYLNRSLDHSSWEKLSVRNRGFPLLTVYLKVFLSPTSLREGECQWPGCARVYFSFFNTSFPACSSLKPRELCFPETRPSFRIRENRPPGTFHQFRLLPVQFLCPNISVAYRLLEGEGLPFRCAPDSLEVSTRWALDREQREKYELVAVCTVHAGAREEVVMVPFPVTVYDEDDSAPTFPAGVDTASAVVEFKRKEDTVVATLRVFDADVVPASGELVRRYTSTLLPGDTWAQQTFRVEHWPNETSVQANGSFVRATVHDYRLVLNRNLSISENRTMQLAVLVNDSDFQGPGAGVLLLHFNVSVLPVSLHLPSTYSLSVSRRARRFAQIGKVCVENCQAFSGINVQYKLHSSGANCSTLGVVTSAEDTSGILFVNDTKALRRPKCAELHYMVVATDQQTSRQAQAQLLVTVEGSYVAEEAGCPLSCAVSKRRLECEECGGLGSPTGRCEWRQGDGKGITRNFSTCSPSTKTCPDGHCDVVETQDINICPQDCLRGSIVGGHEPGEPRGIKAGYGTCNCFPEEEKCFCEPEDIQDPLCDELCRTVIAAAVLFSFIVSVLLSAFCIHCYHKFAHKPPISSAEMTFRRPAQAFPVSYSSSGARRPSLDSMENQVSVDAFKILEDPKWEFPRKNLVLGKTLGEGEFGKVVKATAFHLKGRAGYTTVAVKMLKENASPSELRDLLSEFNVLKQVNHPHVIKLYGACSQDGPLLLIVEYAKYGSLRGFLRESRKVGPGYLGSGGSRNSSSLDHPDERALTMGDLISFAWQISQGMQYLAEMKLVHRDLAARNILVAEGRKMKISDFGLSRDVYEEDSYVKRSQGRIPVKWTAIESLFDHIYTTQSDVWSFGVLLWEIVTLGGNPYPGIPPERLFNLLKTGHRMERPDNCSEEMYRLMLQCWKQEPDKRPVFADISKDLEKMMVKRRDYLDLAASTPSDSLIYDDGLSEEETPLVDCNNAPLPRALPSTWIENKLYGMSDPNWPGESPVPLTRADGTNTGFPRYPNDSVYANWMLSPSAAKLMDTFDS

382 unique human kinases [3] = target: T3, 382 unique human kinases (Homo sapiens, UniProt P12931); settings: c-Src, [ATP] 15 µM
T3 construct: purchased Reaction Biology (HotSpot contract assay)
T3 sequence (P12931 whole entry): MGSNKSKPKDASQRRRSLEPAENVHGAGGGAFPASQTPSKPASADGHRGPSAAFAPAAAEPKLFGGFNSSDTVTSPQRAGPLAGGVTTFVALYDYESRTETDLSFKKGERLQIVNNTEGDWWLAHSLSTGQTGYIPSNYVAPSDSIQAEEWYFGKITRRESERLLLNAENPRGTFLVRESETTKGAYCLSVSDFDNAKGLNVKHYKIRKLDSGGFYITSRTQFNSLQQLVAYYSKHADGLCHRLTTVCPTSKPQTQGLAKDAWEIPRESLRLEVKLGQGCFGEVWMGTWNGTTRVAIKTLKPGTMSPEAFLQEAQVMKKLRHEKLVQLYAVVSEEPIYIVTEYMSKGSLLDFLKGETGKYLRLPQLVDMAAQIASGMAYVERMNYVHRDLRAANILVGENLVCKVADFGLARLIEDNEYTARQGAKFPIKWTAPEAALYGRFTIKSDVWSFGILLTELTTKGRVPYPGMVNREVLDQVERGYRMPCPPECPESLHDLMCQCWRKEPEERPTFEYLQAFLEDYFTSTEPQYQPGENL

382 unique human kinases [4] = target: T4, 382 unique human kinases (Homo sapiens, UniProt P57059); settings: SIK1, [ATP] 30 µM
T4 construct: purchased Reaction Biology (HotSpot contract assay)
T4 sequence (P57059 whole entry): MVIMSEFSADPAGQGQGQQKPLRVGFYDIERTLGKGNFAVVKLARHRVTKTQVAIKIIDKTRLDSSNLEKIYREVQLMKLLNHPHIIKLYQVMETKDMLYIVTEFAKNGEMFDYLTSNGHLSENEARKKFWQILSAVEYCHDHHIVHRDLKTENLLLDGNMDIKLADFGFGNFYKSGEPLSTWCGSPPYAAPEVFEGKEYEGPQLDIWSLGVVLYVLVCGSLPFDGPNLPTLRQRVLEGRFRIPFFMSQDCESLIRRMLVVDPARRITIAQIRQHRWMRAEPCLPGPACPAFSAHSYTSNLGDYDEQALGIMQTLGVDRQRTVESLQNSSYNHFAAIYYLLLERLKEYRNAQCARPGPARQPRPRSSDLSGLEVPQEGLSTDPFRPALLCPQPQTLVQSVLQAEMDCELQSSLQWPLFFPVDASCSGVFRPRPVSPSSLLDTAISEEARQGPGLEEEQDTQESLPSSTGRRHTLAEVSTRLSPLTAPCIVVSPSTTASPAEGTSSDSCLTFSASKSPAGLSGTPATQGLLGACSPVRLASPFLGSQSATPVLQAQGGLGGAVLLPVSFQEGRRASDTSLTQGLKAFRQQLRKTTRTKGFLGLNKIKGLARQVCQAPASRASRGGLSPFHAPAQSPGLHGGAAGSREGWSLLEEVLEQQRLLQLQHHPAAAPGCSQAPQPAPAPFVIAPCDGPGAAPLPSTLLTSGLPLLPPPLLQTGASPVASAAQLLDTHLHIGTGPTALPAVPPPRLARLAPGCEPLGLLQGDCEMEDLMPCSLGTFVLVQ

382 unique human kinases [5] = target: T5, 382 unique human kinases (Homo sapiens, UniProt Q15118); settings: PDK1/PDHK1, [ATP] 50 µM, compound 10 uM; for remaining activity at 10 µM: read-out: % Enzyme Activity (relative to DMSO controls)
T5 construct: purchased Reaction Biology (HotSpot contract assay)
T5 sequence (Q15118 29-436): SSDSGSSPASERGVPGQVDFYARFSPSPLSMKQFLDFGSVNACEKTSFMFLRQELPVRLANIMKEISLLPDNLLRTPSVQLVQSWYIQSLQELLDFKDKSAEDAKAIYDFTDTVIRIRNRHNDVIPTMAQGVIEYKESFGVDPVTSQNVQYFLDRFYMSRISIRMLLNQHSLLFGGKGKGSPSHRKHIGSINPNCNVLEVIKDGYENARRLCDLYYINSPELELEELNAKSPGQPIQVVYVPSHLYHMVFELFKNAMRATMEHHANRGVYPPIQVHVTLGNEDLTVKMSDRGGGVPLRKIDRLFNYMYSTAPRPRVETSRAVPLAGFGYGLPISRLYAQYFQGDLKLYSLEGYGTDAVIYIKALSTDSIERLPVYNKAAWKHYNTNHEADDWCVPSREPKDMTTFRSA

382 unique human kinases [6] = target: T6, 382 unique human kinases (Homo sapiens, UniProt Q9NYL2); settings: ZAK/MLTK, [ATP] 50 µM, compound 10 uM; for remaining activity at 10 µM: read-out: % Enzyme Activity (relative to DMSO controls)
T6 construct: purchased Reaction Biology (HotSpot contract assay)
T6 sequence (Q9NYL2 whole entry): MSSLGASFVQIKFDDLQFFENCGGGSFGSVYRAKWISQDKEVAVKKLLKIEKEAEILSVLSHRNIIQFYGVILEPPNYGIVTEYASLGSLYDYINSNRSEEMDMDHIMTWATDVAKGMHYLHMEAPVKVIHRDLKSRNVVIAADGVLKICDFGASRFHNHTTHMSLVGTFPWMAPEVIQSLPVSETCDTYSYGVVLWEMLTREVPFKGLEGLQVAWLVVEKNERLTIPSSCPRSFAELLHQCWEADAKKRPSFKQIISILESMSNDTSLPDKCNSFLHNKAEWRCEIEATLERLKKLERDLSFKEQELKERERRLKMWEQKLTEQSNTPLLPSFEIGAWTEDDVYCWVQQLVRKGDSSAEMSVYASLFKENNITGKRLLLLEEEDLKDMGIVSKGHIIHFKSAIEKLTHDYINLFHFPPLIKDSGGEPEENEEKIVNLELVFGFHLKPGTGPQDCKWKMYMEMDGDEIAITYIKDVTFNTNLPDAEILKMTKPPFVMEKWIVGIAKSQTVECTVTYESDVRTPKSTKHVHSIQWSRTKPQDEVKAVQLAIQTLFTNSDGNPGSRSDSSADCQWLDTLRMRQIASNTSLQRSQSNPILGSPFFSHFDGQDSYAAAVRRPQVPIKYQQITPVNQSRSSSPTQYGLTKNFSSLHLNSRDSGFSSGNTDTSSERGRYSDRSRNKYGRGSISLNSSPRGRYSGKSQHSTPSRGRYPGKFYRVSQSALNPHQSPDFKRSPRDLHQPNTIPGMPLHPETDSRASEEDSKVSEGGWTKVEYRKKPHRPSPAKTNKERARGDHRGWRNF

382 unique human kinases [7] = target: T7, 382 unique human kinases (Homo sapiens, UniProt Q56UN5); settings: kinase YSK4/MAP3K19, compound 10 uM; for remaining activity at 10 µM: read-out: % Enzyme Activity (relative to DMSO controls)
T7 construct: purchased Reaction Biology (HotSpot contract assay)
T7 sequence (Q56UN5 1-1328): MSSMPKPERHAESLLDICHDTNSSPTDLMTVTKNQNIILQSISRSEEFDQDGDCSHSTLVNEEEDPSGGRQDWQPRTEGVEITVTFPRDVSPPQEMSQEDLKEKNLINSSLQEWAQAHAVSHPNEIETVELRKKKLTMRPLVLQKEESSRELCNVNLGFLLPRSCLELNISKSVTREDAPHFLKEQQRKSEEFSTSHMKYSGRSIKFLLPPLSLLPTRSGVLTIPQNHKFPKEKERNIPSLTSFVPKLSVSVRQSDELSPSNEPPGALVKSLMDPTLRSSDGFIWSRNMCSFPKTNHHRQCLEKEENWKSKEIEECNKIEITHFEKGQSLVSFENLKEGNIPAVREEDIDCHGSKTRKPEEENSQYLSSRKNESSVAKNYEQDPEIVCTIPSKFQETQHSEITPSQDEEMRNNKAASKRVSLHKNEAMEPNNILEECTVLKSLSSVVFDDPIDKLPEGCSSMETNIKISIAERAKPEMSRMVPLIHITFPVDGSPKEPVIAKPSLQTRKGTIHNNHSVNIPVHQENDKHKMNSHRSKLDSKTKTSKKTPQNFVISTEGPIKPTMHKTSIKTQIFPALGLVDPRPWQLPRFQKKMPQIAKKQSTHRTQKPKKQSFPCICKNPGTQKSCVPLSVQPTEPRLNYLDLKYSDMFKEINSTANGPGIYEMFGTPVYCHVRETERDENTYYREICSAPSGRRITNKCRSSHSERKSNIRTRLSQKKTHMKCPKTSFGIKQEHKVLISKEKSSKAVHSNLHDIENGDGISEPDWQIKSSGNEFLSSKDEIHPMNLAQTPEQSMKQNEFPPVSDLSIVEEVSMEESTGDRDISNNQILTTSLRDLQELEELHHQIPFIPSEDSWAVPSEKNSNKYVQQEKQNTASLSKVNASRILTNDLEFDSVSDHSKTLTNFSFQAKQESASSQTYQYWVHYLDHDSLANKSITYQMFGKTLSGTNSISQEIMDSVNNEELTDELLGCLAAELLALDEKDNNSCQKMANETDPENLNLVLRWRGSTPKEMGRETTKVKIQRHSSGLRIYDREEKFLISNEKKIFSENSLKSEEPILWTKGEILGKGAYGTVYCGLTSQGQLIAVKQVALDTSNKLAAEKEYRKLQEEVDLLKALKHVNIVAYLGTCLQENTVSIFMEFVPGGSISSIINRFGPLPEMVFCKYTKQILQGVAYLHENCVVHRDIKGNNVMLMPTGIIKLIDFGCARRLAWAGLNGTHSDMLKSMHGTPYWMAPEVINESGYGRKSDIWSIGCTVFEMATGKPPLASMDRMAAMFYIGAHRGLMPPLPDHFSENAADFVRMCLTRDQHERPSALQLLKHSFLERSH

382 unique human kinases [8] = target: T8, 382 unique human kinases (Homo sapiens, UniProt Q9Y2K2); settings: SIK3, 10 uM; for remaining activity at 10 µM: read-out: % Enzyme Activity (relative to DMSO controls)
T8 construct: purchased Reaction Biology (HotSpot contract assay)
T8 sequence (Q9Y2K2 whole entry): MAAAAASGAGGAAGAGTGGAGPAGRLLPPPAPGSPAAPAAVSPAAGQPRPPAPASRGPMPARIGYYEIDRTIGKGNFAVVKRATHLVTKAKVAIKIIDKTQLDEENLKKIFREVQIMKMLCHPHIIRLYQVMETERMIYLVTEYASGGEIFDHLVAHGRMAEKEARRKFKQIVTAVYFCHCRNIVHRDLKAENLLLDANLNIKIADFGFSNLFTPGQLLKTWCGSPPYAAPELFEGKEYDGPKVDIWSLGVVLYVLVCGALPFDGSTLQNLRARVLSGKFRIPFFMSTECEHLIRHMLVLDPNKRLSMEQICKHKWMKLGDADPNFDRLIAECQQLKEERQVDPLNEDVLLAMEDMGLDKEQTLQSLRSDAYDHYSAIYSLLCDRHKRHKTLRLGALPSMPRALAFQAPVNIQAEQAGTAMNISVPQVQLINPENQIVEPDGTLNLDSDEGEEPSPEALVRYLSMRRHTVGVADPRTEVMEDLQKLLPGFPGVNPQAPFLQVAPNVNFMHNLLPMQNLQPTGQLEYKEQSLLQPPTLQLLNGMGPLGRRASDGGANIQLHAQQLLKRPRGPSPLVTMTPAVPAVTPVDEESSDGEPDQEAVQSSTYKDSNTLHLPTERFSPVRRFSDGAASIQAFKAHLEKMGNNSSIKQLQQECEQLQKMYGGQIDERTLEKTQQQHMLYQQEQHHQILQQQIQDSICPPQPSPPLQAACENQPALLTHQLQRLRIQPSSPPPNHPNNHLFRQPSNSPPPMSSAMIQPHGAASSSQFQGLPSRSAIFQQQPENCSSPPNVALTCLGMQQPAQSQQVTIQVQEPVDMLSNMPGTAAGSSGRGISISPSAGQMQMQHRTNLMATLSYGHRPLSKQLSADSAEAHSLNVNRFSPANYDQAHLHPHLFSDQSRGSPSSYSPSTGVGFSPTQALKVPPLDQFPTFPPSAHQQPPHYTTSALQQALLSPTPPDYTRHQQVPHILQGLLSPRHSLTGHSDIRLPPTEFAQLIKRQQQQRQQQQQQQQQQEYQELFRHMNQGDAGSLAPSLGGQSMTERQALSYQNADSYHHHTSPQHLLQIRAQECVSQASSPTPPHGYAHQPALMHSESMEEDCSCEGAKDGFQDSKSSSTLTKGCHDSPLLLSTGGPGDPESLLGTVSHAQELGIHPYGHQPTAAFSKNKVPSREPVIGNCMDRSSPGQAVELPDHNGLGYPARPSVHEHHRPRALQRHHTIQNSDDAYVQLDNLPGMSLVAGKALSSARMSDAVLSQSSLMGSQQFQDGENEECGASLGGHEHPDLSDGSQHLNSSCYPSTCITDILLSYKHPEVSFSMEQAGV

[9] = compound 10 uM, read-out: % Enzyme Activity (relative to DMSO controls)
[10] = compound 1 uM, read-out: % Enzyme Activity (relative to DMSO controls)

SMILES | % Enzyme Activity (relative to DMSO controls) (382 unique human kinases [1]) [%] | remaining activity at 10 µM (382 unique human kinases [1]) [%] | % Enzyme Activity (relative to DMSO controls) (382 unique human kinases [2]) [%] | remaining activity at 10 µM (382 unique human kinases [2]) [%] | % Enzyme Activity (relative to DMSO controls) (382 unique human kinases [3]; compound 10 uM) [%] | remaining activity at 10 µM (382 unique human kinases [3]; [9]) [%] | % Enzyme Activity (relative to DMSO controls) (382 unique human kinases [4]; compound 10 uM) [%] | remaining activity at 10 µM (382 unique human kinases [4]; [9]) [%] | % Enzyme Activity (relative to DMSO controls) (382 unique human kinases [5]) [%] | remaining activity at 10 µM (382 unique human kinases [5]) [%] | % Enzyme Activity (relative to DMSO controls) (382 unique human kinases [6]) [%] | remaining activity at 10 µM (382 unique human kinases [6]) [%] | remaining activity at 10 µM (382 unique human kinases [7]) [%] | remaining activity at 10 µM (382 unique human kinases [8]) [%] | % Enzyme Activity (relative to DMSO controls) (382 unique human kinases [7]) [%] | % Enzyme Activity (relative to DMSO controls) (382 unique human kinases [8]) [%] | remaining activity at 1 µM (382 unique human kinases [3]; [10]) [%] | remaining activity at 1 µM (382 unique human kinases [4]; [10]) [%]
CCNC(=O)c1noc(-c2cc(C(C)C)c(O)cc2O)c1-c1ccc(CN2CCOCC2)cc1 [Luminespib] | 93.54 | 94.7 | 96.83 | 97.5 | 33.43 | 36.4 | 79.13 | 80.3 | 56.21 | 60 | 94.35 | 99.3 | – | – | – | – | – | –
CC(C)c1cc(-c2n[nH]c(=O)n2-c2ccc3c(ccn3C)c2)c(O)cc1O [Ganetespib (STA9090)] | – | – | – | – | – | – | – | – | – | – | – | – | 85.8 | 78.3 | – | – | – | –
CCNC(=O)c1noc(-c2cc(C(C)C)c(O)cc2O)c1-c1ccc(CN2CCOCC2)cc1 [Luminespib (AUY-922)] | – | – | – | – | – | – | – | – | – | – | – | – | 88.7 | 99.6 | 85.23 | 99.21 | – | –
CC(C)c1cc(-c2n[nH]c(=O)n2-c2ccc3c(ccn3C)c2)c(O)cc1O [Ganetespib] | – | 103 | – | 97.7 | – | 9.14 | – | 11.4 | – | 54.4 | – | 48.1 | – | – | – | – | 38.8 | 75.9
